In patent US20190083202A1, “APPARATUS AND METHODS USEFUL FOR REMODELING MAXILLOFACIAL BONE USING LIGHT THERAPY, AN ORTHODONTIC APPLIANCE, AND OPTIONALLY, VITAMIN D ADMINISTRATION” (priority 2017, published 2019):

Test: Paper example: vitamin D3 supplementation with daily light and fixed orthodontic appliance
Format: in vivo, human
Details: passive phase; continued vitamin D3 2000 to 12,000 IU orally per day
Procedure: In one example, an adult patient's Vitamin D3 blood-serum level is measured during their routine orthodontic-examination and -records appointment. Laboratory results can indicate that the patient's vitamin D3 serum levels are at 20 ng/ml, which is considered to be deficient and abnormal. In this example, the patient's orthodontic diagnosis is Class I mild crowding with 4 mm of crowding on the upper arch and 4 mm on the lower arch. An orthodontic treatment plan can be formulated to comprise the installation of a fixed orthodontic appliance with some mild expansion of the upper and lower arches.
In this example, the patient self-administers oral oil-based vitamin D3 capsules at an amount of 6000 IU per day for 3 months to increase and normalize their vitamin D3 serum levels. Laboratory serum testing can optionally be performed again after 3 months of vitamin D3 supplementation. The patient can maintains or adjusts their oral dose of vitamin D3 based on their subsequent lab results. It should be understood that there are a number of alternative oral and/or systemic dosing protocols for vitamin D administration that could be followed to achieve similar results. The dosing protocol outlined above is merely one of many approaches.
In this example, orthodontic treatment can start either after the 3 month period or no more than about three months prior. […]

C=C1CC[C@H](O)C/C1=C/C=C1\CCC[C@]2(C)[C@@H]([C@H](C)CCCC(C)C)CC[C@@H]12 [vitamin D3]
alveolar bone density around the teeth: increased
